# Test results reported in patent publication US9604933B2, “Pyrazolochalcones as potential anticancer agents” (COUNCIL OF SCIENTIFIC AND INDUSTRIAL RESEARCH, priority 2013, dated 2017).
# Read-outs that look alike come from different tables or passages of the source.
# Assays:
# 786-0 = assay: NCI SRB cytotoxicity, renal 786-0; assay type: cell-based; settings: Homo sapiens, 48 h exposure
# Description: (§1) The pyrazolochalcones (7e, 8e, 10e, 11e, 12e, 13e and 8f) have been tested against fifty nine human tumor cell lines derived from nine cancer types (leukemia, non-small cell lung cancer, colon cancer, CNS cancer, melanoma, ovarian cancer, renal cancer, prostate cancer and breast cancer) as per the NCI protocol. For each compound, dose response curves for individual cell lines have been measured at a minimum of five concentrations at 10 fold dilutions. A protocol of 48 h continuous drug exposure has been used, and a sulforhodamine B (SRB) protein assay has been used to estimate cell viability or growth. The concentration for 50% cell growth inhibition (GI50), 50% cell death (LC50, 50% growth) and total cell growth inhibition (TGI, 0% growth) values were tabulated (Table-1). DMSO was used as control to calculate the values of GI50, LC50 and TGI. The compounds 7e, 8e, 10e, 11e, 12e, 13e and 8f has been evaluated for their in vitro cytotoxicity in […] cell lines from nine human cancer types of leukemia (K-562, SR), non-small cell lung (Hop-62, NCI-H226, NCI-H522), colon (HCT-116, HCT-15, HCC-2998), CNS (SF-539), melanoma (SK-MEL-5, UACC-62, M14), ovarian (IGROV1), renal (A498), prostate (PC3) and breast (BT-549, MDA-MB-435, HS578T) origin. The results are expressed as percent of cell growth determined relative to that of untreated control cells (Table 2).
# MDA-MB-435 [1] = assay: NCI SRB cytotoxicity, melanoma MDA-MB-435; assay type: cell-based; settings: Homo sapiens, Melanoma panel MDA-MB-435, 48 h exposure
# Description: as §1
# ACHN = assay: NCI SRB cytotoxicity, renal ACHN; assay type: cell-based; settings: Homo sapiens, 48 h exposure
# Description: as §1
# human tumor cell lines = assay: NCI SRB cytotoxicity, all fifty nine human tumor cell lines; assay type: cell-based; design: Log10 TGI mean graph midpoint (MG_MID): unit not given here; settings: for GI50: Homo sapiens; for cytotoxicity: against cancer cell lines, in words; for LC50: read-out: Log10 LC50 mean graph midpoint (MG_MID) (converted)
# Description: as §1
# The mean graph midpoint values of Log10 TGI and Log10 LC50 as well as Log10 GI50 for compounds 7e, 8e, 10e, 11e, 12e, 13e and 8f is listed in Table-3. […] The mean graph mid points of Log10 TGI and Log10, LC50 have shown similar pattern to the log10 GI50 mean graph mid points.
# COLO-205 = assay: NCI SRB cytotoxicity, colon COLO-205; assay type: cell-based; settings: Homo sapiens, 48 h exposure
# Description: as §1
# SK-MEL-5 = assay: NCI SRB cytotoxicity, melanoma SK-MEL-5; assay type: cell-based; settings: Homo sapiens, 48 h exposure
# Description: as §1
# SW-620 = assay: NCI SRB cytotoxicity, colon SW-620; assay type: cell-based; settings: Homo sapiens, 48 h exposure
# Description: as §1
# OVCAR-4 = assay: NCI SRB cytotoxicity, ovarian OVCAR-4; assay type: cell-based; settings: Homo sapiens, 48 h exposure
# Description: as §1
# LOX IMVI = assay: NCI SRB cytotoxicity, melanoma LOX IMVI; assay type: cell-based; settings: Homo sapiens, 48 h exposure
# Description: as §1
# MDA-MB-435 [2] = assay: NCI SRB cytotoxicity, breast panel MDA-MB-435; assay type: cell-based; settings: Homo sapiens, 48 h exposure
# Description: as §1
# NCI-H522 = assay: NCI SRB cytotoxicity, non-small cell lung NCI-H522; assay type: cell-based; settings: Homo sapiens, 48 h exposure
# Description: as §1
# HCC-2998 = assay: NCI SRB cytotoxicity, colon HCC-2998; assay type: cell-based; settings: Homo sapiens, 48 h exposure
# Description: as §1
# NCI-H226 = assay: NCI SRB cytotoxicity, non-small cell lung NCI-H226; assay type: cell-based; settings: Homo sapiens, 48 h exposure
# Description: as §1
# M14 = assay: NCI SRB cytotoxicity, melanoma M14; assay type: cell-based; settings: Homo sapiens, 48 h exposure
# Description: as §1
# SR = assay: NCI SRB cytotoxicity, leukemia SR; assay type: cell-based; settings: Homo sapiens, 48 h exposure
# Description: as §1
# NCIH322M = assay: NCI SRB cytotoxicity, non-small cell lung NCIH322M; assay type: cell-based; settings: Homo sapiens, NCI-H322M, 48 h exposure
# Description: as §1
# KM12 = assay: NCI SRB cytotoxicity, colon KM12; assay type: cell-based; settings: Homo sapiens, 48 h exposure
# Description: as §1
# SNB-19 = assay: NCI SRB cytotoxicity, CNS SNB-19; assay type: cell-based; settings: Homo sapiens, 48 h exposure
# Description: as §1
# BT-549 = assay: NCI SRB cytotoxicity, breast BT-549; assay type: cell-based; settings: Homo sapiens, 48 h exposure
# Description: as §1
# OVCAR-5 = assay: NCI SRB cytotoxicity, ovarian OVCAR-5; assay type: cell-based; settings: Homo sapiens, 48 h exposure
# Description: as §1
# HOP-62 = assay: NCI SRB cytotoxicity, non-small cell lung HOP-62; assay type: cell-based; settings: Homo sapiens, 48 h exposure
# Description: as §1
# HT29 = assay: NCI SRB cytotoxicity, colon HT29; assay type: cell-based; settings: Homo sapiens, HT-29, 48 h exposure
# Description: as §1
# CAKI-1 = assay: NCI SRB cytotoxicity, renal CAKI-1; assay type: cell-based; settings: Homo sapiens, 48 h exposure
# Description: as §1
# MALME-3M = assay: NCI SRB cytotoxicity, melanoma MALME-3M; assay type: cell-based; settings: Homo sapiens, 48 h exposure
# Description: as §1
# HCT-15 = assay: NCI SRB cytotoxicity, colon HCT-15; assay type: cell-based; settings: Homo sapiens, 48 h exposure
# Description: as §1
# A498 = assay: NCI SRB cytotoxicity, renal A498; assay type: cell-based; settings: Homo sapiens, 48 h exposure
# Description: as §1
# SK-MEL-28 = assay: NCI SRB cytotoxicity, melanoma SK-MEL-28; assay type: cell-based; settings: Homo sapiens, 48 h exposure
# Description: as §1
# SF-268 = assay: NCI SRB cytotoxicity, CNS SF-268; assay type: cell-based; settings: Homo sapiens, 48 h exposure
# Description: as §1
# IGROV1 = assay: NCI SRB cytotoxicity, ovarian IGROV1; assay type: cell-based; settings: Homo sapiens, IGROV-1, 48 h exposure
# Description: as §1
# RPMI-8226 = assay: NCI SRB cytotoxicity, leukemia RPMI-8226; assay type: cell-based; settings: Homo sapiens, 48 h exposure
# Description: as §1
# CNS = assay: NCI SRB cytotoxicity, CNS panel average; assay type: cell-based, human; settings: average of cell lines; for LC50: read-out: Log10 LC50 (concentration in mol/L causing 50% cell death) (converted)
# Description: as §1
# (§2) Each cancer type represents the average of six to eight different cancer cell lines.
# OVCAR-8 = assay: NCI SRB cytotoxicity, ovarian OVCAR-8; assay type: cell-based; settings: Homo sapiens, 48 h exposure
# Description: as §1
# Breast = assay: NCI SRB cytotoxicity, breast panel average; assay type: cell-based, human; settings: average of cell lines; for CC50: read-out: Log10 LC50 (concentration in mol/L causing 50% cell death) (converted)
# Description: as §1, §2
# SK-OV-3 = assay: NCI SRB cytotoxicity, ovarian SK-OV-3; assay type: cell-based; settings: Homo sapiens, 48 h exposure
# Description: as §1
# T-47D = assay: NCI SRB cytotoxicity, breast T-47D; assay type: cell-based; settings: Homo sapiens, T47D, 48 h exposure
# Description: as §1
# [3] = across fifty nine cell lines in nine cell panels, read-out: GI50 value range
# [4] = against human tumor cell lines, read-out: Log10 GI50 mean graph midpoint (MG_MID) (converted)
# [5] = Homo sapiens, read-out: Log10 GI50 (concentration in mol/L causing 50% growth inhibition) (converted)
structure (smiles),measurement,setting,value
"COc1ccc(C(=O)/C=C/c2cc(-c3ccc4c(c3)OCO4)n[nH]2)cc1OC [8f, (E)-3-(3-(benzo[d][1,3]dioxol-5-yl)-1H-pyrazol-5-yl)-1-(3,4-dimethoxyphenyl)prop-2-en-1-one]",GI50,786-0,3120 nM
same,GI50,MDA-MB-435 [1],3030 nM
same,GI50,ACHN,3490 nM
same,GI50,human tumor cell lines; [3],180 to 29200 nM
same,GI50,human tumor cell lines; [4],2750 nM
same,cytotoxicity,human tumor cell lines,significant cytotoxicity
same,Log10 TGI mean graph midpoint (MG_MID),human tumor cell lines; against human tumor cell lines,−4.98
same,LC50,human tumor cell lines; against human tumor cell lines,43700 nM
same,GI50,COLO-205,3840 nM
same,GI50,SK-MEL-5,6740 nM
same,GI50,SW-620,2050 nM
same,GI50,OVCAR-4,2110 nM
same,GI50,LOX IMVI,1970 nM
same,GI50,MDA-MB-435 [2],1800 nM
same,GI50,NCI-H522,1820 nM
same,GI50,HCC-2998,4990 nM
same,GI50,NCI-H226,3400 nM
same,GI50,M14,6360 nM
same,GI50,SR,1270 nM
same,GI50,NCIH322M,2480 nM
same,GI50,KM12,2860 nM
same,GI50,SNB-19,3200 nM
same,GI50,BT-549,1900 nM
same,GI50,OVCAR-5,3360 nM
same,GI50,HOP-62,2080 nM
same,GI50,HT29,2980 nM
same,GI50,CAKI-1,1900 nM
same,GI50,MALME-3M,7320 nM
same,GI50,HCT-15,2810 nM
same,GI50,A498,1550 nM
same,GI50,SK-MEL-28,5760 nM
same,GI50,SF-268,2530 nM
same,GI50,IGROV1,2790 nM
same,GI50,RPMI-8226,1030 nM
same,LC50,CNS; Homo sapiens,155000 nM
same,Log10 GI50 (concentration in mol/L causing 50% growth inhibition),CNS,−5.65 mol/L
same,Log10 TGI (concentration in mol/L causing total growth inhibition (0% growth)),CNS,−5.14 mol/L
same,GI50,OVCAR-8,2150 nM
same,CC50,Breast; Homo sapiens,39800 nM
same,Log10 GI50 (concentration in mol/L causing 50% growth inhibition),Breast,−4.76 mol/L
same,Log10 TGI (concentration in mol/L causing total growth inhibition (0% growth)),Breast,−5.05 mol/L
same,GI50,SK-OV-3,3970 nM
same,GI50,T-47D,3200 nM
"COc1cc(C(=O)/C=C/c2cc(-c3cc(OC)c(OC)c(OC)c3)n[nH]2)cc(OC)c1OC [10e, (E)-1-(3,4,5-trimethoxyphenyl)-3-(3-(3,4,5-trimethoxyphenyl)-1H-pyrazol-5-yl)prop-2-en-1-one]",GI50,786-0,1560 nM
same,GI50,MDA-MB-435 [1],1490 nM
same,GI50,ACHN,1620 nM
same,GI50,human tumor cell lines; [3],180 to 29200 nM
same,GI50,human tumor cell lines; [4],1550 nM
same,cytotoxicity,human tumor cell lines,significant cytotoxicity
same,Log10 TGI mean graph midpoint (MG_MID),human tumor cell lines; against human tumor cell lines,−5.36
same,LC50,human tumor cell lines; against human tumor cell lines,11500 nM
same,GI50,COLO-205,1750 nM
same,GI50,SK-MEL-5,1570 nM
same,GI50,SW-620,1590 nM
same,GI50,OVCAR-4,1450 nM
same,GI50,LOX IMVI,1520 nM
same,GI50,MDA-MB-435 [2],1150 nM
same,GI50,NCI-H522,520 nM
same,GI50,HCC-2998,1830 nM
same,GI50,NCI-H226,1600 nM
same,GI50,M14,1790 nM
same,GI50,SR,390 nM
same,GI50,NCIH322M,2000 nM
same,GI50,KM12,1490 nM
same,GI50,SNB-19,1660 nM
same,GI50,BT-549,1570 nM
same,GI50,OVCAR-5,1640 nM
same,GI50,HOP-62,1460 nM
same,GI50,HT29,1790 nM
same,GI50,CAKI-1,2580 nM
same,GI50,MALME-3M,1860 nM
same,GI50,HCT-15,1500 nM
same,GI50,A498,1610 nM
same,GI50,SK-MEL-28,1820 nM
same,GI50,SF-268,1940 nM
same,GI50,IGROV1,3140 nM
same,GI50,RPMI-8226,310 nM
same,GI50,CNS; [5],1620 nM
same,LC50,CNS; Homo sapiens,7940 nM
same,Log10 TGI (concentration in mol/L causing total growth inhibition (0% growth)),CNS,−5.46 mol/L
same,GI50,OVCAR-8,1580 nM
same,GI50,Breast; [5],1350 nM
same,CC50,Breast; Homo sapiens,10000 nM
same,Log10 TGI (concentration in mol/L causing total growth inhibition (0% growth)),Breast,−5.35 mol/L
same,GI50,SK-OV-3,3200 nM
same,GI50,T-47D,1130 nM
